Tests used:
EZH2 = EZH2 (Homo sapiens, UniProt Q15910); assay: EZH2 inhibition assay (Reaction Biology Corp.); type: biochemical; conditions: for IC50: 10-dose IC50 mode, 3-fold serial dilution starting at 10 μM, single experiment
Method: The EZH2 inhibitory ability of the synthesized adduct was assessed by Reaction Biology Corporation Malvern, PA. (http://www.reactionbiology.com).

HSP90a = HSP90a (Homo sapiens, UniProt P07900); assay: In vitro Hsp90 assay (Reaction Biology Corp.); type: biochemical; conditions: for IC50: 10-dose IC50 mode, 3-fold serial dilution starting at 10 μM, single experiment, '-' read as no inhibition
Method: The HSP90 inhibitory activity of the synthesized adduct was assessed by Reaction Biology Corporation Malvern, PA. (http://www.reactionbiology.com).

[1] = tested on: TMZ-resistant cells (Pt3R); assay: Cell viability CCK8 assay; type: cell-based, human; conditions: 72 h; for IC50: Homo sapiens, CCK8, read-out: IC50, cell growth inhibitory effects
Excerpt: The CCK8 reagent was purchased from TargetMOI (Wellesley Hills, MA) and used according to the manufacturer’s instruction.

Pt#3-R-induced tumor = assay: In vivo anti-GBM efficacy, Pt3R xenograft; conditions: intraperitoneally twice per week; TAZ 10 or 20 mg/kg; STA+TAZ 5+5, 10+10, 15+15 mg/kg
Method: In vivo anti-GBM efficacy of compound 7 was also evaluated in this study. For the in vivo study, experimental NOD.CB17-Prkdc^scid/NCrCrl mice (8-week-old) were used and Pt3R cells (1 × 10^6) in 50 μL Dulbecco’s modified Eagle’s medium (DMEM) were injected into the back of mice. After 10 days, the tumor was detectable. […] In a nutshell, the outcome of the in vivo study ascertains that the remarkable in vitro anti-GBM activity profile of dual inhibitor 7 was translated to the in vivo potential.
Animal experiments were approved by the institutional animal care and use committee of Taipei Medical University (IACUC: LAC2022-0288). Male NOD.CB17-Prkdc^scid/NCrCrl mice (8-week-old) were purchased from BioLASCO Taiwan Co., Ltd. (Taipei, Taiwan). Pt3R cells (1 × 10^6) in 50 μL of DMEM were injected into the back of mice. Experimental mice were grouped as follows (Figure 11): DMSO (n = 5), C7–10 mg/kg (n = 4), C7–20 mg/kg (n = 6), TAZ-10 mg/kg (n = 6), TAZ-20 mg/kg (n = 8), STA-5+TAZ-5 mg/kg (n = 7), STA-10+TAZ-10 mg/kg (n = 7) and STA-15+TAZ-15 mg/kg (n = 7). After 10 days, the tumor was touchable. Mice were injected intraperitoneally with DMSO (the control group) or compounds twice per week.

EZH2, sequence (Q15910 whole entry): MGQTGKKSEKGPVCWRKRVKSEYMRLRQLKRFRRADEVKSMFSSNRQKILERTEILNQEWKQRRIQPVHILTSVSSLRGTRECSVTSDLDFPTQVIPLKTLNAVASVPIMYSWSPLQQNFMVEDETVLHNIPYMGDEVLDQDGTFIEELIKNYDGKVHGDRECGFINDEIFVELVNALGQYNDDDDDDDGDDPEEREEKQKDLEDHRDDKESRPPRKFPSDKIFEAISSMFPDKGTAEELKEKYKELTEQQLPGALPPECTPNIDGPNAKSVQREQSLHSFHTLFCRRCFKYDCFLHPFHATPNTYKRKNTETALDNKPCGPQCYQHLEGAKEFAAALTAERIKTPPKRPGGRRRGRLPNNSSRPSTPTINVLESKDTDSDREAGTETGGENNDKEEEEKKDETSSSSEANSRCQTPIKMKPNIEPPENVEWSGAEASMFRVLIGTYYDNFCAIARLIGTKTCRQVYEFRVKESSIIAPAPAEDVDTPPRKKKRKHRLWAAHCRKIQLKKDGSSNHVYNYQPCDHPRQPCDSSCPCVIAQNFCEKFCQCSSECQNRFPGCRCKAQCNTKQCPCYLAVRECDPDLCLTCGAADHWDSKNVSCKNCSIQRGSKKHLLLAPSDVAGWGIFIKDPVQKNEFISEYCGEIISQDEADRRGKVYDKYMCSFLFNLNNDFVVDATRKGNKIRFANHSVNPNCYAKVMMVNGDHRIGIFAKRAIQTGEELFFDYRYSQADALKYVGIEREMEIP
EZH2, sequence (O75530 whole entry partner): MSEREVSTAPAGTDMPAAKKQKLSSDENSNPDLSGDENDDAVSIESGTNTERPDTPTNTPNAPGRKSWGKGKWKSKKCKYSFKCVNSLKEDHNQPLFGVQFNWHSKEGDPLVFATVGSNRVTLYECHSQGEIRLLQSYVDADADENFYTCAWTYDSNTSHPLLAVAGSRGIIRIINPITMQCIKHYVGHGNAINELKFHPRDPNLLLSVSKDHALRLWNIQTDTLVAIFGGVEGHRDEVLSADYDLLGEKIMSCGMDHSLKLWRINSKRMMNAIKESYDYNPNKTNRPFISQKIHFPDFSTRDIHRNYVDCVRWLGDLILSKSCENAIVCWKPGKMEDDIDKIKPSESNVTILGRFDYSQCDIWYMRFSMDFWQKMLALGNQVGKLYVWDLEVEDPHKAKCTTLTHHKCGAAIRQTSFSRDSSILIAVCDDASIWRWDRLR
EZH2, sequence (Q15022 whole entry partner): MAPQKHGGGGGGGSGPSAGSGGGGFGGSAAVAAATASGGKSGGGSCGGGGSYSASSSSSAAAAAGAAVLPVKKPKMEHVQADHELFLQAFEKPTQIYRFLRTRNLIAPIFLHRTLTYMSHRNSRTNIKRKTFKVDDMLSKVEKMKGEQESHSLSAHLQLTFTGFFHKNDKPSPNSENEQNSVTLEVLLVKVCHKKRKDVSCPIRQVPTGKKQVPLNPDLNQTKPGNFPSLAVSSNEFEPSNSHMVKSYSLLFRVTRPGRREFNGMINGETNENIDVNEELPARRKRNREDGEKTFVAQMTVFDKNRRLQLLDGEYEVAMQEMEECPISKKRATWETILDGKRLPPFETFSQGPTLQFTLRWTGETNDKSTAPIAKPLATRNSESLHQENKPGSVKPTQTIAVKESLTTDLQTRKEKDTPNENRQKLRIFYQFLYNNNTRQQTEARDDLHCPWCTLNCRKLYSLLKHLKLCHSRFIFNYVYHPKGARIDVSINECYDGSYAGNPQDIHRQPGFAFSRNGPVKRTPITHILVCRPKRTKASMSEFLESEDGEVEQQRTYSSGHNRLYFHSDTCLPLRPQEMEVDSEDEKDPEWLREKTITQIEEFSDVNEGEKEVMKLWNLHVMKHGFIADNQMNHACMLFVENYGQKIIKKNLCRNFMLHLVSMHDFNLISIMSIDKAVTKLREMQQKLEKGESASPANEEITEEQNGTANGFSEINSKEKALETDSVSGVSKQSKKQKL
EZH2, sequence (Q09028 whole entry partner): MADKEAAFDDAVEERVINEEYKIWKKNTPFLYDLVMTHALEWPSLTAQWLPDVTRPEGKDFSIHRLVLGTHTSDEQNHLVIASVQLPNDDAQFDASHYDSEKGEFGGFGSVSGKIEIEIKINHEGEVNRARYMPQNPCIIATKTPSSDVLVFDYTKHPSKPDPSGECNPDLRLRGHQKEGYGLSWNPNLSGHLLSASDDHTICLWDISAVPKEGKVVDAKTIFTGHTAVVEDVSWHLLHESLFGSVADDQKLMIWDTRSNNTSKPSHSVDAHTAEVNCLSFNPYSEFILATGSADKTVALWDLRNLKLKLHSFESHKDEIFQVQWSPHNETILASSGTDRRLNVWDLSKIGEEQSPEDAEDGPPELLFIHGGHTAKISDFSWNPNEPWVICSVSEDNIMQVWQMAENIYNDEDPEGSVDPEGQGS
EZH2, sequence (Q6ZN18 whole entry partner): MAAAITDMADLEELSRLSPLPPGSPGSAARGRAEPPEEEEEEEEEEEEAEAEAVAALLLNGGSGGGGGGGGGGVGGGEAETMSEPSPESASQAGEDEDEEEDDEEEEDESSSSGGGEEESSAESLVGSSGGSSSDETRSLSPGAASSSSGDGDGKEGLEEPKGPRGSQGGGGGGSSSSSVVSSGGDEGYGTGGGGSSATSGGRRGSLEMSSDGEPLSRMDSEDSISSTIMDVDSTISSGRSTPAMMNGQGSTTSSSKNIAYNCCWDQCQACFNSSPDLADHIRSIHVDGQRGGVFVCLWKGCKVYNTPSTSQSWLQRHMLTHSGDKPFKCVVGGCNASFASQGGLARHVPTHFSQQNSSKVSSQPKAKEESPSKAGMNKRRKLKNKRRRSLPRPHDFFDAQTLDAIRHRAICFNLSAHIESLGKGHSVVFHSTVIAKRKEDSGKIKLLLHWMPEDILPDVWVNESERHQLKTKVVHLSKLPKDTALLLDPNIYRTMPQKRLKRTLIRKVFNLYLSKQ

IC50 (EZH2) [nM] | HSP90 inhibitory potential (in words) (HSP90a) | fold more potent in inhibiting EZH2 than counterpart 1 (EZH2; compound 2 vs 1) [fold] | IC50 (HSP90a) [nM] | SMILES | cell growth inhibitory effects (in words) [1] | IC50 [1] [µM] | tumor growth (Pt#3-R-induced tumor)
6.14 | devoid of HSP90 inhibitory potential |  |  | CCN(c1cc(-c2ccc(NC(=O)c3cc(C(C)C)c(O)cc3O)cc2)cc(C(=O)NCc2c(C)cc(C)[nH]c2=O)c1C)C1CCOCC1 [Compound 1, 4′-(2,4-Fihydroxy-5-isopropylbenzamido)-N-((4,6-dimethyl-2-oxo-1,2-dihydropyridin-3-yl)methyl)-5-(ethyl(tetrahydro-2H-pyran-4-yl)amino)-4-methyl-[1,1′-biphenyl]-3-carboxamide] | unable to exert cell growth inhibitory effects |  | 
2.06 | devoid of HSP90 inhibitory potential | 3 |  | CCN(c1cc(-c2cccc(NC(=O)c3cc(C(C)C)c(O)cc3O)c2)cc(C(=O)NCc2c(C)cc(C)[nH]c2=O)c1C)C1CCOCC1 [Compound 2, 3′-(2,4-Fihydroxy-5-isopropylbenzamido)-N-((4,6-dimethyl-2-oxo-1,2-dihydropyridin-3-yl)methyl)-5-(ethyl(tetrahydro-2H-pyran-4-yl)amino)-4-methyl-[1,1′-biphenyl]-3-carboxamide] | unable to exert cell growth inhibitory effects |  | 
7.35 |  |  | 823 | CCN(C(=O)c1cc(C(C)C)c(O)cc1O)c1ccc(-c2cc(C(=O)NCc3c(C)cc(C)[nH]c3=O)c(C)c(N(CC)C3CCOCC3)c2)cc1 [Compound 4, N-((4,6-Dimethyl-2-oxo-1,2-dihydropyridin-3-yl)methyl)-5-(ethyl(tetrahydro-2H-pyran-4-yl)amino)-4′-(N-ethyl-2,4-dihydroxy-5-isopropylbenzamido)-4-methyl-[1,1′-biphenyl]-3-carboxamide] |  |  | 
21.8 |  |  |  | CCCN(C(=O)c1cc(C(C)C)c(O)cc1O)c1ccc(-c2cc(C(=O)NCc3c(C)cc(C)[nH]c3=O)c(C)c(N(CC)C3CCOCC3)c2)cc1 [Compound 5, 4′-(2,4-Dihydroxy-5-isopropyl-N-propylbenzamido)-N-((4,6-dimethyl-2-oxo-1,2-dihydropyridin-3-yl)methyl)-5-(ethyl(tetrahydro-2H-pyran-4-yl)amino)-4-methyl-[1,1′-biphenyl]-3-carboxamide] |  |  | 
11.7 |  |  | > 10000 | CCN(c1cc(-c2ccc(N(Cc3ccccc3)C(=O)c3cc(C(C)C)c(O)cc3O)cc2)cc(C(=O)NCc2c(C)cc(C)[nH]c2=O)c1C)C1CCOCC1 [Compound 6, 4′-(N-Benzyl-2,4-dihydroxy-5-isopropylbenzamido)-N-((4,6-dimethyl-2-oxo-1,2-dihydropyridin-3-yl)methyl)-5-(ethyl(tetrahydro-2H-pyran-4-yl)amino)-4-methyl-[1,1′-biphenyl]-3-carboxamide] |  |  | 
40.1 |  |  | 9330 | CCCN(C(=O)c1cc(C(C)C)c(O)cc1O)c1cccc(-c2cc(C(=O)NCc3c(C)cc(C)[nH]c3=O)c(C)c(N(CC)C3CCOCC3)c2)c1 [Compound 9, 3′-(2,4-Dihydroxy-5-isopropyl-N-propylbenzamido)-N-((4,6-dimethyl-2-oxo-1,2-dihydropyridin-3-yl)methyl)-5-(ethyl(tetrahydro-2H-pyran-4-yl)amino)-4-methyl-[1,1′-biphenyl]-3-carboxamide] | unable to exert cell growth inhibitory effects |  | 
641 |  |  | 2840 | CCN(c1cc(-c2cccc(N(Cc3ccccc3)C(=O)c3cc(C(C)C)c(O)cc3O)c2)cc(C(=O)NCc2c(C)cc(C)[nH]c2=O)c1C)C1CCOCC1 [Compound 10, 3′-(N-Benzyl-2,4-dihydroxy-5-isopropylbenzamido)-N-((4,6-dimethyl-2-oxo-1,2-dihydropyridin-3-yl)methyl)-5-(ethyl(tetrahydro-2H-pyran-4-yl)amino)-4-methyl-[1,1′-biphenyl]-3-carboxamide] | unable to exert cell growth inhibitory effects |  | 
 |  |  |  | CCN(c1cc(-c2ccc(CN3CCOCC3)cc2)cc(C(=O)NCc2c(C)cc(C)[nH]c2=O)c1C)C1CCOCC1 [Tazemetostat, reference compound] | unable to exert cell growth inhibitory effects |  | failed to suppress tumor growth

SMILES | IC50 (EZH2) [nM] | HSP90 inhibitory potential (in words) (HSP90a) | fold more potent in inhibiting EZH2 than counterpart 1 (EZH2; compound 2 vs 1) [fold] | IC50 (HSP90a) [nM] | cell growth inhibitory effects (in words) [1] | IC50 [1] [µM] | tumor growth (Pt#3-R-induced tumor)
CCN(c1cc(-c2ccc(N(C)C(=O)c3cc(C(C)C)c(O)cc3O)cc2)cc(C(=O)NCc2c(C)cc(C)[nH]c2=O)c1C)C1CCOCC1 [Compound 3, 4′-(2,4-Dihydroxy-5-isopropyl-N-methylbenzamido)-N-((4,6-dimethyl-2-oxo-1,2-dihydropyridin-3-yl)methyl)-5-(ethyl(tetrahydro-2H-pyran-4-yl)amino)-4-methyl-[1,1′-biphenyl]-3-carboxamide] | 7.21 |  |  | 343 |  | 27.4 ± 1.58 | 
CCN(C(=O)c1cc(C(C)C)c(O)cc1O)c1cccc(-c2cc(C(=O)NCc3c(C)cc(C)[nH]c3=O)c(C)c(N(CC)C3CCOCC3)c2)c1 [Compound 8, N-((4,6-Dimethyl-2-oxo-1,2-dihydropyridin-3-yl)methyl)-5-(ethyl(tetrahydro-2H-pyran-4-yl)amino)-3′-(N-ethyl-2,4-dihydroxy-5-isopropylbenzamido)-4-methyl-[1,1′-biphenyl]-3-carboxamide] | 36.6 |  |  | 63.6 |  | 10.8 ± 1 | 
